The source of these data is patent US9340590B2 (priority 2011, dated 2016).

Where two headings read alike, the source gives them in different places. Positions of bridges follow the written chain, without caps; N, C: chain ends. Non-standard residues stand in square brackets, D forms with d. Residues, ends and D or L forms follow the SMILES beside them. Abu = CC[C@H](N)C(=O)O

The test system of data set [1] is locomotor activity in male CD-1 mice. The conditions noted are these: 5 mg/kg.
Data set [2] can be described thus: in vivo. Conditions: male, CD-1, mouse, sc, 5 mg/kg, terminal exposure (peptide plasma concentration at 2 h post peptide injection), later studies, 5 mg/kg s.c.
The target in the next data set is hNav1.3 (Homo sapiens, UniProt Q9NY46). The experiment in a line: cell-based. Format: cell-based.
hNav1.3, sequence (Q9NY46 whole entry, looked up): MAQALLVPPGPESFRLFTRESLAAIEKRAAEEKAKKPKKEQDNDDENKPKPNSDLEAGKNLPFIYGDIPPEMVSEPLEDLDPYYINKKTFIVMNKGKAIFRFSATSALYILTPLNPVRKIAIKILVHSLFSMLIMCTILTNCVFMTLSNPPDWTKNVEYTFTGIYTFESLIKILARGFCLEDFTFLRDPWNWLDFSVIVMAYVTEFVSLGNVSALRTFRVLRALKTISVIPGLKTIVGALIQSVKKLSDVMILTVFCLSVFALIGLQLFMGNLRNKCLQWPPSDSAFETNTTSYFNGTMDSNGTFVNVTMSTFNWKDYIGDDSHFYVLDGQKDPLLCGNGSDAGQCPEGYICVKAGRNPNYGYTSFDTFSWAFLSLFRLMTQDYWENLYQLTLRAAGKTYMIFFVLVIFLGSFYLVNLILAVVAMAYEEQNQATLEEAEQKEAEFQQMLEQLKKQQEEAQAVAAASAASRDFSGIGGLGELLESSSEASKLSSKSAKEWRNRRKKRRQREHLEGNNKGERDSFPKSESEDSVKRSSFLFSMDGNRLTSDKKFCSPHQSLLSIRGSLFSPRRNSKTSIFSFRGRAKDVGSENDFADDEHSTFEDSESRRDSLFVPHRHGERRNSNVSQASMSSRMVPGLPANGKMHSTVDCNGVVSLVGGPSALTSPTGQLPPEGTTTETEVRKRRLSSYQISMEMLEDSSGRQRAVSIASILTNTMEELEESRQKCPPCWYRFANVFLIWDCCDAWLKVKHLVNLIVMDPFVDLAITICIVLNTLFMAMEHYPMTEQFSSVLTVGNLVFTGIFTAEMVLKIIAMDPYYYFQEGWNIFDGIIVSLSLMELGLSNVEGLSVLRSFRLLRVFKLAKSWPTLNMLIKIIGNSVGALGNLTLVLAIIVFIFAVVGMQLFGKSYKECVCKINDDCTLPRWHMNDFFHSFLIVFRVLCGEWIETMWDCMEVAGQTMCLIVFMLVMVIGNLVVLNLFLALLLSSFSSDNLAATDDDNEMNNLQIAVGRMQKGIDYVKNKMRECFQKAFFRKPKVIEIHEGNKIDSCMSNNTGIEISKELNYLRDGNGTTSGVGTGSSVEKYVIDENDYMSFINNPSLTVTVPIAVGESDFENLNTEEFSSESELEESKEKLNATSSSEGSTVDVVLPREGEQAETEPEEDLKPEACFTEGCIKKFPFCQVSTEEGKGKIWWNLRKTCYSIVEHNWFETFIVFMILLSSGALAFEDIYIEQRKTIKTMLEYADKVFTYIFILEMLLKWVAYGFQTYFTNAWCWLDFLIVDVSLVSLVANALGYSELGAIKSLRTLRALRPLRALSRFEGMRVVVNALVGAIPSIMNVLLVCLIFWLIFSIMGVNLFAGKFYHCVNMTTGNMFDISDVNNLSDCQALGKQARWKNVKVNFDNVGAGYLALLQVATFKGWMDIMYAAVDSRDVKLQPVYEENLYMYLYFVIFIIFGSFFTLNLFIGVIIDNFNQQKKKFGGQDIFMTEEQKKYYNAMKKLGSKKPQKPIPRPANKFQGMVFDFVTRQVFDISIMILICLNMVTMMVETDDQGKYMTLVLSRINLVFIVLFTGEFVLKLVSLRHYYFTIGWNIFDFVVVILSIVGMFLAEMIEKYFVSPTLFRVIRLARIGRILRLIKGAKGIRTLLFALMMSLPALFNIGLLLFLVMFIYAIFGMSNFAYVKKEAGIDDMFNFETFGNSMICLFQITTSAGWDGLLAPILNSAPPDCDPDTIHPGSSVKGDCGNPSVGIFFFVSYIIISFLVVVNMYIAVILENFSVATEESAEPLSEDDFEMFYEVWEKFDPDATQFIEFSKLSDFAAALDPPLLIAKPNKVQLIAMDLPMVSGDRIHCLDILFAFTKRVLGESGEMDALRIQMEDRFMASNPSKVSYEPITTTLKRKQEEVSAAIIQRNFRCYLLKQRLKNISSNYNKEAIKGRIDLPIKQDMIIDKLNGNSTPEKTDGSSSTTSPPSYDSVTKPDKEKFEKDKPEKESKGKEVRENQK
For another data set, the target named is hNav1.4 (Homo sapiens, UniProt P35499). The experiment in a line: cell-based. Conditions: read-out: Nav1.4 Use IC50.
Data set [3] concerns the target T1, hNav1.5 (Homo sapiens, UniProt Q14524). Nature of the data set: cell-based. The conditions noted are these: read-out: Nav1.5 Use IC50.
Data set [4] has as its target T2, hNav1.7 (Homo sapiens, UniProt Q15858). Format: cell-based.
The target in data set [5] is T1, hNav1.5. Format: cell-based.
Data set [6] can be described thus: in vivo. The conditions noted are these: male, CD-1, mouse, sc, 5 mg/kg, terminal exposure (peptide plasma concentration at 45 min post formalin injection).
Data set [7] has as its system veratridine-induced spontaneous nociceptive behaviors in male CD-1 mice. Conditions: mouse, in vivo.
Data set [8] has as its target T2, hNav1.7. The experiment in a line: cell-based. Conditions: Nav1.7 Use IC50.
The conditions of data set [9]: rat plasma, 37° C.
In a further data set the test system is mechanical hyperalgesia. Conditions: rat, in vivo; cited from earlier work.
The test system of data set [10] is C-fiber compound action potential. The conditions noted are these: cited from earlier work.
For data set [11] the following is noted: rat, in vivo, 0.1 mg/kg; cited from earlier work.
The subject of the next data set is NaV1.7. Conditions: read-out: EC50, impairs fast inactivation; cited from earlier work.

T1 sequence (Q14524 whole entry, looked up): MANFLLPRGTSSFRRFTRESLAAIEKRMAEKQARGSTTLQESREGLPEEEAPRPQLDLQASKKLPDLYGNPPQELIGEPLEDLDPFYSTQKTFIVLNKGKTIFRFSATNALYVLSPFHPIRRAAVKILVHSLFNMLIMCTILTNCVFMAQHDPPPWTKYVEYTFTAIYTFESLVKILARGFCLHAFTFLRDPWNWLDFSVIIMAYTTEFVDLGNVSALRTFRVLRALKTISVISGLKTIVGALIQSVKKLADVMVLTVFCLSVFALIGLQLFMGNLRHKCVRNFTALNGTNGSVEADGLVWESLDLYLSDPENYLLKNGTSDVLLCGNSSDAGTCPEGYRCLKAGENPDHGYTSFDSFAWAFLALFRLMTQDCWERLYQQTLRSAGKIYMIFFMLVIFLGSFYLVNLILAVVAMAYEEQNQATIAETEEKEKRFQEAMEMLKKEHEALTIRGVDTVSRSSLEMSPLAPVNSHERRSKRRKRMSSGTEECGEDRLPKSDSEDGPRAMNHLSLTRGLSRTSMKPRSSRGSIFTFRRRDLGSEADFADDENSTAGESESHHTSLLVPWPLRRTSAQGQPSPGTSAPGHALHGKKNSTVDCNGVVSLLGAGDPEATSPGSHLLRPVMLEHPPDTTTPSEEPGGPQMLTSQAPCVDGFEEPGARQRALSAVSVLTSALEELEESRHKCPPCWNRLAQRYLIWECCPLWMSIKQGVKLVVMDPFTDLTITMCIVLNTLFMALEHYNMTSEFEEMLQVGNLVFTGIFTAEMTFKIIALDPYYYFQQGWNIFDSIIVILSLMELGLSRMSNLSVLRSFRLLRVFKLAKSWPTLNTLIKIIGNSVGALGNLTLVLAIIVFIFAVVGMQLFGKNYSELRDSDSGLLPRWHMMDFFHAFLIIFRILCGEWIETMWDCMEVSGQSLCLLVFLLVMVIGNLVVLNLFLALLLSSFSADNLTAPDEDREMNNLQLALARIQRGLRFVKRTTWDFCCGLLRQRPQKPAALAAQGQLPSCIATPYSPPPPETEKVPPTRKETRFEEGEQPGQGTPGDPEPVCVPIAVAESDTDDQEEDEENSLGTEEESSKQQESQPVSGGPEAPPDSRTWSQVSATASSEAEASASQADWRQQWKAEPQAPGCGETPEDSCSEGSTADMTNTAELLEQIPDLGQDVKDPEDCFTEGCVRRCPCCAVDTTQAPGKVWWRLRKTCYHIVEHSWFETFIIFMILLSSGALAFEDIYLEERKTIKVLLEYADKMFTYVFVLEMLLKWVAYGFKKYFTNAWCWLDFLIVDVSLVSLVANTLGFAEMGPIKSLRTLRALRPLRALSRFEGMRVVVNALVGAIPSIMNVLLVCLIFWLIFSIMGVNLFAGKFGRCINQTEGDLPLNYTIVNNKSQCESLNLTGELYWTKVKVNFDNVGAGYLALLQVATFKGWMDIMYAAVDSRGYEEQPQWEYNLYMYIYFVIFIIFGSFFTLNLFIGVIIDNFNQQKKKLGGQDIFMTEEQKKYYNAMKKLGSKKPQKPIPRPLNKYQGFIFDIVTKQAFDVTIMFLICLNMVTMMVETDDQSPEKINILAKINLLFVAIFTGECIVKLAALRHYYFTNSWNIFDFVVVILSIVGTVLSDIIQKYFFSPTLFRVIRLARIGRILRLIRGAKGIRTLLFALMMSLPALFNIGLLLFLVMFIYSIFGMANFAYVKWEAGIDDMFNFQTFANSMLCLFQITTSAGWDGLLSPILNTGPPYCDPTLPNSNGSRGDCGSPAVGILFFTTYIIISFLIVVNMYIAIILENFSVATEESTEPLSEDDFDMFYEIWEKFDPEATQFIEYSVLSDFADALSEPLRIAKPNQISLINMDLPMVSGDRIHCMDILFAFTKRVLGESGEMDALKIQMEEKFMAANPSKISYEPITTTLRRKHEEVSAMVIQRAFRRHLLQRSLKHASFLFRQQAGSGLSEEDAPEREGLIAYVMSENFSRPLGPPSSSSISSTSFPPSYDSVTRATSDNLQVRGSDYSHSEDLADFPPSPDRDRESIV

As to `CC[C@@H]1NC(=O)[C@H](CC(=O)O)NC(=O)[C@@H]2CCCN2C(=O)[C@H](CCC(=O)O)NC(=O)[C@@H]2CSSC[C@@H]3NC(=O)[C@H](C(C)C)NC(=O)[C@H](CC(C)C)NC(=O)[C@H](CC(N)=O)NC(=O)[C@@H]4CCCN4C(=O)[C@H](CCCNC(=N)N)NC(=O)[C@H](CSSC[C@H](NC(=O)[C@@H](N)CC(=O)O)C(=O)N[C@@H](CC(C)C)C(=O)NCC(=O)N[C@@H](C)C(=O)N[C@@H](Cc4ccccc4)C(=O)N[C@@H](CCCNC(=N)N)C(=O)N[C@@H](CCCCN)C(=O)N2)NC(=O)[C@H](CSSC[C@@H](C(=O)N[C@@H](CCCCN)C(=O)N[C@@H](Cc2ccc(O)cc2)C(=O)N[C@H](C(=O)N[C@@H](Cc2ccccc2)C(N)=O)C(C)C)NC(=O)[C@H](Cc2c[nH]c4ccccc24)NC(=O)[C@H](CCCNC(=N)N)NC(=O)[C@H](Cc2c[nH]cn2)NC(=O)[C@H](CC(C)C)NC(=O)[C@H](CCCNC(=N)N)NC(=O)[C@H](CO)NC3=O)NC(=O)[C@H](CCCCN)NC(=O)[C@H](CC(=O)O)NC1=O` (H-DCLGAFRKCEPD[Abu]DKCCRPNLVCSRLHRWCKYVF-NH2; disulfide 2-17, 9-23, 16-30), the “behavior of animals in the open field analysis” value in [1] is reported as “moribund behavior or lethality”. Also, in the data set “in vivo [2]”, the level at time molar at 2 h was determined as 1720 ± 313 nM.
The term IC50 denotes the point on the concentration scale where inhibition reaches its midpoint. Consider “[Phe6,Atz(2 kDa EtO-PEG*-{[Phe6,Atz13*]GpTx-1(1-34)}) 13]GpTx-1(1-34) [Homodimeric Conjugate 1]”, for which the concentration for half-maximal inhibition (IC50) is 8 nM on hNav1.3 (read-out: Nav1.3 Use IC50); 254 nM at hNav1.4; 1430 nM at hNav1.5 [3]; 75.5 nM at hNav1.5 [5] (read-out: IC50 against hNav1.5 sodium channels); 57 nM at hNav1.5 [5] (read-out: IC50 against hNav1.5 sodium channels, partially inactivated). Moreover, the “inhibition of the Nav1.7 current” value against hNav1.7 [4] is “complete inhibition”. Also, the “inhibition of the Nav1.5 current” value at hNav1.5 [5] is “complete inhibition”.
Molecule `CC[C@H](C)[C@@H]1NC(=O)[C@@H]2CSSC[C@@H]3NC(=O)[C@H](C(C)C)NC(=O)[C@H](CC(C)C)NC(=O)[C@H](CC(N)=O)NC(=O)[C@@H]4CCCN4C(=O)[C@H](CCCNC(=N)N)NC(=O)[C@H](CSSC[C@H](NC(=O)[C@@H](N)CC(=O)O)C(=O)N[C@@H](CC(C)C)C(=O)NCC(=O)N[C@@H](Cc4ccccc4)C(=O)N[C@@H](CCSC)C(=O)N[C@@H](CCCNC(=N)N)C(=O)N[C@@H](CCCCN)C(=O)N2)NC(=O)[C@H](CSSC[C@@H](C(=O)N[C@@H](CCCCN)C(=O)N[C@@H](Cc2ccc(O)cc2)C(=O)N[C@H](C(=O)N[C@@H](Cc2ccccc2)C(N)=O)C(C)C)NC(=O)[C@H](CCC(=O)O)NC(=O)[C@H](CCCCN)NC(=O)[C@H](Cc2cnc[nH]2)NC(=O)[C@H]([C@@H](C)O)NC(=O)[C@H](CCCNC(=N)N)NC(=O)[C@H](CO)NC3=O)NC(=O)[C@H](CCCCN)NC(=O)[C@H](CC(=O)O)NC(=O)[C@H](CC(N)=O)NC(=O)[C@H](CC(=O)O)NC(=O)[C@@H]2CCCN2C1=O` [[Glu29]GpTx-1(1-34)] (H-DCLGFMRKCIPDNDKCCRPNLVCSRTHKECKYVF-NH2; disulfide 2-17, 9-23, 16-30) came in with a level at time molar at […] in “in vivo [6]” of 502 ± 271 nM. In addition, in the data set “in vivo [2]”, the level at time molar at 2 h was 771 ± 272 nM.
Take `Cc1cccc(C)c1OCC(C)N` (centres unmarked) [mexiletine, reference compound]: in data set [7], the “veratridine-induced paw lifting behavior” value is reported as “significantly reversed”.
Turning to `CSCC[C@@H]1NC(=O)[C@H](Cc2ccccc2)NC(=O)CNC(=O)[C@H](CC(C)C)NC(=O)[C@@H](NC(=O)[C@@H](N)CC(=O)O)CSSC[C@@H]2NC(=O)[C@@H]3CSSC[C@@H](C(=O)N[C@@H](CCCCN)C(=O)N[C@@H](Cc4ccc(O)cc4)C(=O)N[C@H](C(=O)N[C@@H](Cc4ccccc4)C(N)=O)C(C)C)NC(=O)[C@H](Cc4c[nH]c5ccccc45)NC(=O)[C@H](CCCCN)NC(=O)[C@H](Cc4c[nH]cn4)NC(=O)[C@H]([C@@H](C)O)NC(=O)[C@H](CCCNC(=N)N)NC(=O)[C@H](CO)NC(=O)[C@H](CSSC[C@H](NC(=O)[C@H](CCCCN)NC(=O)[C@H](CCCNC(=N)N)NC1=O)C(=O)N[C@@H](Cc1cccc4ccccc14)C(=O)N1CCC[C@H]1C(=O)N[C@@H](CC(=O)O)C(=O)N[C@@H](CC(N)=O)C(=O)N[C@@H](CC(=O)O)C(=O)N[C@@H](CCCCN)C(=O)N3)NC(=O)[C@H](C(C)C)NC(=O)[C@H](CC(C)C)NC(=O)[C@H](CC(N)=O)NC(=O)[C@@H]1CCCN1C(=O)[C@H](CCCNC(=N)N)NC2=O` [[1-Nal10]GpTx-1(1-34)], the values for the half-inhibitory concentration (IC50) on hNav1.7 [8], at hNav1.3 (Nav1.3 Use IC50) and on hNav1.5 [3] were 5 nM, 39 nM and 12900 nM, respectively. Further, the “% peptide remaining” value in data set [9] (incubation time 0 hr) is recorded as 100%; in data set [9] (incubation time 2 hr) it was 104%; in [9] (incubation time 4 hr) it was 106%; in [9] (incubation time 6 hr), 108%; in [9] (incubation time 8 hr), 112%; in data set [9] (incubation time 24 hr) it was 89%.
Take “YCQKWMWTCDSERKCCEGMVCRLWCKKKLW [ProTx-II, YCQKWMWTCDSERKCCEGMVCRLWCKKKLW]”: the “efficacy in a mechanical hyperalgesia study” value in the data set on mechanical hyperalgesia is reported as “not efficacious”. For the same molecule, in data set [10], the “C-fiber compound action potential” value was “completely blocked” and the action potential propagation entry is reported as “little effect”. For the same molecule, the tolerability in rats entry in data set [11] was “lethal”.
Broadly, the EC50 is the midpoint of the concentration-response curve. “GVRDAYIADDKNCVYTCASNGYCNTECTKNGAESGYCQWIGRYGNACWCIKLPDEVPIRIPGKCR [OD1]”: the concentration for a half-maximal effect (EC50) with NaV1.7 was 4.5 nM.
